Test results taken from the NIST ThermoML archive (doi:10.1021/acs.jced.5b00675).

Conditions: Liquid, Closed cell (Static) method

FCC(F)(F)F [1,1,1,2-tetrafluoroethane]
Conditions	vapor or sublimation pressure [kPa]
258.2 K	162
262.2 K	193
272.2 K	286
282.6 K	411
292.9 K	569
302.7 K	763
